Test: xn = mol fraction of the nth substance listed
Conditions: Liquid, Vibrating tube method

C=CC(C)(O)CCC=C(C)C (stereo not given) [3,7-dimethyl-1,6-octadien-3-ol] + CC(C)O
mass density [kg/m3]
Conditions | x2 = 0 | x2 = 0.1031 | x2 = 0.2049 | x2 = 0.3054 | x2 = 0.4056 | x2 = 0.5022 | x2 = 0.605 | x2 = 0.7008 | x2 = 0.7981 | x2 = 0.9092
283.15 K, 100 kPa | 869.5 | 866.3 | 862.7 | – | 854.1 | 848.8 | 842.3 | 834.6 | – | 809.3
283.15 K, 5000 kPa | 872.6 | 869.5 | – | 861.9 | 857.4 | 852.2 | 845.7 | – | 828.2 | 813.1
283.15 K, 10000 kPa | 875.7 | – | 869 | 864.9 | 860.5 | 855.3 | – | 841.4 | 831.6 | 816.6
283.15 K, 15000 kPa | – | 875.5 | 872.1 | 868.1 | 863.7 | – | 852.2 | 844.9 | 835.1 | 820.4
283.15 K, 20000 kPa | 881.5 | 878.5 | 875 | 870.9 | – | 861.6 | 855.3 | 848 | 838.4 | –
283.18 K, 100 kPa | – | – | – | 858.7 | – | – | – | – | 824.5 | –
283.18 K, 5000 kPa | – | – | 865.9 | – | – | – | – | 838.1 | – | –
283.18 K, 10000 kPa | – | 872.5 | – | – | – | – | 848.9 | – | – | –
283.18 K, 15000 kPa | 878.7 | – | – | – | – | 858.6 | – | – | – | –
283.18 K, 20000 kPa | – | – | – | – | 866.7 | – | – | – | – | 823.7
298.15 K, 100 kPa | 857.3 | 854.1 | 850.5 | 846.3 | 841.7 | 836.4 | 829.7 | 821.9 | 812 | 796.8
298.15 K, 5000 kPa | 860.6 | 857.4 | 853.9 | 849.8 | 845.2 | 839.9 | 833.3 | 825.6 | 815.9 | 800.9
298.15 K, 10000 kPa | 863.9 | 860.8 | 857.3 | 853.2 | 848.7 | 843.5 | 837 | 829.4 | 819.7 | 804.9
298.15 K, 15000 kPa | 867 | 864 | 860.5 | 856.5 | 852 | 846.9 | 840.4 | 832.9 | 823.4 | 808.8
298.15 K, 20000 kPa | 870 | 867 | 863.6 | 859.6 | 855.2 | 850.1 | 843.7 | 836.4 | 826.9 | 812.4
313.15 K, 100 kPa | 844.5 | 841.4 | 837.7 | 833.4 | 828.7 | 823.2 | 816.4 | 808.5 | 798.6 | 783.6
313.15 K, 5000 kPa | 848.2 | 845.1 | 841.5 | 837.3 | 832.6 | 827.2 | 820.6 | 812.8 | 803 | 788.2
313.15 K, 10000 kPa | 851.6 | 848.6 | 845.1 | 840.9 | 836.3 | 831 | 824.4 | 816.8 | 807.1 | 792.5
313.15 K, 15000 kPa | 855 | 852.1 | 848.6 | 844.5 | 840 | 834.8 | 828.2 | 820.6 | 811.1 | 796.7
313.15 K, 20000 kPa | 858.4 | 855.4 | 852 | 847.9 | 843.5 | 838.3 | 831.8 | 824.4 | 814.9 | 800.7
328.15 K, 100 kPa | 831.7 | 828.5 | – | 820.4 | 815.5 | 809.9 | 802.8 | – | 784.8 | 769.8
328.15 K, 5000 kPa | 835.6 | – | 828.8 | 824.5 | 819.7 | 814.2 | – | 799.4 | 789.5 | 774.8
328.15 K, 10000 kPa | – | 836.4 | 832.8 | 828.6 | 823.9 | – | 811.6 | 803.9 | 794.2 | 779.7
328.15 K, 15000 kPa | 843.1 | 840.1 | 836.5 | 832.3 | – | 822.3 | 815.6 | 808 | 798.4 | –
328.15 K, 20000 kPa | 846.7 | 843.6 | 840.2 | – | 831.5 | 826.1 | 819.5 | 812 | – | 788.4
328.18 K, 100 kPa | – | – | 824.8 | – | – | – | – | 794.9 | – | –
328.18 K, 5000 kPa | – | 832.5 | – | – | – | – | 807.2 | – | – | –
328.18 K, 10000 kPa | 839.5 | – | – | – | – | 818.4 | – | – | – | –
328.18 K, 15000 kPa | – | – | – | – | 827.8 | – | – | – | – | 784.1
328.18 K, 20000 kPa | – | – | – | 836 | – | – | – | – | 802.6 | –

C=CC(C)(O)CCC=C(C)C (stereo not given) [3,7-dimethyl-1,6-octadien-3-ol] + CCO
mass density [kg/m3]
Conditions | x2 = 0 | x2 = 0.1129 | x2 = 0.1935 | x2 = 0.3045 | x2 = 0.4023 | x2 = 0.5121 | x2 = 0.6055 | x2 = 0.7008 | x2 = 0.8009 | x2 = 0.9009
283.15 K, 100 kPa | 869.2 | 866.8 | 865.6 | 862.7 | 859.9 | 855.3 | 850.3 | 843.1 | 832.7 | 818.2
283.15 K, 5000 kPa | 872.3 | 869.9 | 868.7 | 866 | 863.1 | 858.5 | 853.5 | 846.5 | 836.3 | 822
283.15 K, 10000 kPa | 875.2 | 872.9 | 871.7 | 869 | 866.1 | 861.6 | 856.8 | 849.7 | 839.6 | 825.5
283.15 K, 15000 kPa | 878.2 | 875.9 | 874.8 | 872.1 | 869.2 | 864.8 | 860.1 | 853 | 843.1 | 829.2
283.15 K, 20000 kPa | 881 | 878.8 | 877.6 | 874.9 | 872.1 | 867.7 | 862.9 | 856.1 | 846.3 | 832.5
298.15 K, 100 kPa | 856.9 | 854.5 | 853.4 | 850.5 | 847.6 | 843 | 838 | 830.9 | 820.6 | 805.9
298.15 K, 5000 kPa | 860.1 | 857.8 | 856.7 | 853.9 | 851 | 846.5 | 841.4 | 834.6 | 824.4 | 809.9
298.15 K, 10000 kPa | 863.5 | 861.1 | 860 | 857.2 | 854.4 | 850 | 845.1 | 838.2 | 828.1 | 813.9
298.15 K, 15000 kPa | 866.6 | 864.3 | 863.2 | 860.5 | 857.7 | 853.2 | 848.4 | 841.6 | 831.7 | 817.7
298.15 K, 20000 kPa | 869.6 | 867.4 | 866.3 | 863.6 | 860.8 | 856.4 | 851.7 | 844.9 | 835.1 | 821.3
313.15 K, 100 kPa | 844.1 | 841.7 | 840.6 | 837.8 | 834.7 | 830.2 | 825.3 | 818 | 807.9 | 793.2
313.15 K, 5000 kPa | 847.8 | 845.4 | 844.4 | 841.6 | 838.6 | 834.1 | 829.3 | 822.3 | 812.1 | 797.7
313.15 K, 10000 kPa | 851.3 | 849 | 847.9 | 845.2 | 842.3 | 837.8 | 833.1 | 826.1 | 816.1 | 801.9
313.15 K, 15000 kPa | 854.8 | 852.5 | 851.4 | 848.7 | 845.8 | 841.4 | 836.7 | 829.8 | 820 | 806
313.15 K, 20000 kPa | 858.1 | 855.8 | 854.8 | 852.1 | 849.2 | 844.9 | 840.2 | 833.4 | 823.7 | 809.8
328.15 K, 100 kPa | 831.3 | 828.9 | 827.8 | 824.9 | 821.8 | 817.3 | 812.3 | 805.2 | 794.9 | 780.2
328.15 K, 5000 kPa | 835.2 | 832.9 | 831.8 | 828.9 | 825.9 | 821.4 | 816.6 | 809.5 | 799.4 | 784.9
328.15 K, 10000 kPa | 839.1 | 836.9 | 835.8 | 832.9 | 829.9 | 825.5 | 820.6 | 813.9 | 803.9 | 789.6
328.15 K, 15000 kPa | 842.7 | 840.5 | 839.4 | 836.6 | 833.7 | 829.3 | 824.5 | 817.8 | 808 | 793.9
328.15 K, 20000 kPa | 846.3 | 844.1 | 843 | 840.3 | 837.3 | 833 | 828.4 | 821.6 | 811.9 | 798.1

Source: the NIST ThermoML archive (doi:10.1021/je100581m)
